According to patent US12465609B2, “Methods of treating patients suffering from a disease condition or disorder that is associated with an increased glutamate level” (veriNOS operations GmbH, priority 2022, dated 2025):

Legend:
[1] = test system: extracellular brain lactate level; experiment: Brain microdialysis, extracellular cerebral lactate levels in TBI patients; type: in vivo, human
Procedure: To monitor the metabolic condition of the patients, extracellular brain glutamate and lactate levels were measured. In more detail, the extracellular intracerebral glutamate and lactate levels measured here is the glutamate or lactate level in brain extracellular fluid (ECF). […] The measurements of the glutamate and lactate levels was carried out using established brain microdialysis (MD) methodology as described, for example, by Chamoun et al, example. Role of extracellular glutamate measured by cerebral microdialysis in severe traumatic brain injury. J Neurosurg. 2010 September; 113(3): 564-570.
The microdialysis (MD) equipment was obtained from M Dialysis AB, Stockholm, Sweden, see www.mdialysis.com. The following equipment was used. • Cerebral MD catheters: CMA 70 • CMA 70 bolt catheter • CMA 71 high cut-off cerebral catheter • Pumps: CMA106=fixed flow rate, CMA107=flexible flow rate • Perfusion solution: Cerebral: Perfusion fluid CNS • Analyzers: CMA 600, ISCUS, ISCUSflex Time Point of MD Catheter Insertion • Aim: Obtain stable baseline values before infusing study drug • Ideal: By 14 hours after TBI or 4 hours before study drug infusion to allow for tissue adaptation, usually lasting 1-4 hours • Compromise: As soon as possible, within 4 hours after beginning study drug infusion Site of Cerebral MD Catheter Insertion • Aim: Monitor metabolic changes close to structural damage visible on routine CT scan • Contusion: Close to the contusion • Mixed lesions: Predominantly injured hemisphere • With bolt system: Right or left frontal lobe • Without bolt system: Right or left frontal/temporal/parietal area • If possible cerebral MD catheter should be placed ipsilateral to the ICP probe • Special care should be taken to avoid inducing injury to pre- and postcentral cortex • The position of the MD probe and the position of the ICP probe in the eCRF should be indicated.
The cerebral glutamate and lactate levels were recorded every 1 h up to 5 days after the start of the infusion. Absolute values were be summarized per treatment group and for each time point by means of descriptive statistics. The 95% confidence intervals for the mean were calculated (normal approximation).
For the analysis of the metabolic state, it was considered that under normal (physiological) conditions glutamate is maintained at low levels (micromolar) in the extracellular space (<2 μmol/L) and in plasma (50-100 μmol/L) to avoid excessive glutamate receptor activation. Within the different intracellular compartments glutamate is present in higher amounts (5-15 millimolar). In brain microdialysis, glutamate levels exceeding 10 μmol/L are considered elevated, higher glutamate levels are associated with worse outcome. In addition to the absolute levels, dynamic changes are also important in interpreting underlying pathology. In brain microdialysis and blood, lactate levels exceeding 2.5 millimol/L are considered pathologically elevated, reflecting insufficient metabolic/energetic stability which is further aggravated by insufficient oxygen supply.

[2] = test system: C57 BL/6 mice, controlled cortical impact (CCI) model; experiment: Controlled cortical impact (CCI) model in mice, intracranial pressure (ICP); type: in vivo; conditions: CCI mice, analogous treatment
Description: The primary objective of this experiment was the characterization of the intracranial pressure (ICP) reduction by VAS3384 in the controlled cortical impact (CCI) model in mice. The secondary objective was characterization of the neuroprotective effect (reduction of the lesion volume) of VAS3384 in the controlled cortical impact model in mice.
• Test compound A • Denomination: VAS 3384 • Active agent: 4-Amino-4-desoxy-7,8-dihydrobiopterin-dihydrochloride, obtained from Schircks Laboratories, Bauma, Switzerland • Detailed composition: VAS 3384 dissolved in sodium phosphate buffer (PBS) pH 7.4 • Formulation method: 15 mg of the test compound (VAS 3384) are dissolved in 500 μl PBS, pH 7.4. The solution is neutralized with 72 μl 1 N NaOH and filled up with 428 μl water (check pH). • Final concentration of active agent: 15 mg/ml • Appearance: yellow, clear solution • Storage (solid test compound): −20° C. • Dose applied: 560 mg/kg or 37.3 ml/kg • Way of administration: intravenous injection/infusion • Negative control • Denomination: sodium phosphate buffer (PBS) • Active agent: none • Detailed composition: Na2HPO4, NaH2PO4, 100 mM pH 7.4 • Formulation method: ready for use • Final concentration of active agent: not applicable • Appearance: colourless, clear solution • Expiration date: 3 months after preparation • Volume applied: 37.3 ml/kg • Way of administration: intravenous injection/infusion Experimental Procedure
The animals (C57 BL/6 mice), under Dormicum/Methidomidin/Fentanyl-narcosis were fixed in a stereo tactical frame and the scalp was opened with a cut along the median. The skull bone
was laid open and disinfected with H2O2. A hole of approx. 1.2 mm diameter was then drilled into the skull (Bregma 0.4-0.4 mm). The ICP-probe was introduced through this hole. The V. jugularis was be laid open and a catheter introduced. This catheter was introduced in the neck subcutaneously and fixed on the cap of the cage with a protective spiral of metal. This setup permitted an infusion in awake animals. The skull was opened above of the right cortex and mechanically traumatized (CCI model). The skullcap was then closed with the removed bone.
Mice 1-9: 10 minutes after the trauma the animals got an intravenous bolus injection of 20 mg/kg VAS 3384 (=1.33 ml/kg) followed by an infusion of 1.5 mg/kg/min (=100 μl/kg/min) VAS 3384 over six hours to maintain the dose. After six hours, after termination of the infusion, and after 24 hours the ICP of the animals was measured. After 24 hours the animals were sacrificed, the brains dissected and the lesion volume determined by Nissl's method.
Mice 10-18: 10 minutes after the trauma the animals received an intravenous bolus injection of 1.33 ml/kg PBS followed by an infusion of 100 μl/kg/min PBS over six hours. After six hours, after the termination of the infusion, and after 24 hours the ICP of the animals was measured.
At the end of the observation period animals were sacrificed by cervical dislocation in deep halothane anaesthesia. The brains were carefully removed, frozen in powdered dry ice, and stored at −20° C. until further use. Ten μm coronal sections were prepared every 500 μm on a cryostat (CryoStar HM 560, Microm, Walldorf, Germany) and stained with cresyl violet. Sections were photographed with a digital camera system. The contusion area, the area of the non-traumatized tissue of the ipsilateral hemisphere, and the area of the contralateral hemisphere were determined on the digitized images with a standard image analysis software (Optimate 6.51, Media Cybernetics, Silver Spring, MD, USA) by an investigator blinded to the treatment of the animals. In order to correct for the swelling of contused tissue, the contusion area was calculated by subtracting the area of the non-traumatized tissue of the ipsilateral hemisphere from the area of the contralateral hemisphere. […]

For `C[C@H](O)[C@H](O)C1CNc2nc(N)nc(N)c2N1` (mixture of isomers) [Ronopterin, 4-Amino-(6R,S)-5,6,7,8-tetrahydro-L-biopterin], the “extracellular cerebral lactate levels” value ([1]; 18 to 39 years, all times to infusion, patients reaching <2.5 millimol/L (FIG. 7A)) was “lower brain lactate levels compared to the placebo group”, the “extracellular cerebral lactate levels” value ([1]; 18 to 39 years, infusion >12 hours, a number of patients <2.5 millimol/L (FIG. 8C)) was “lower brain lactate levels than the placebo group” and the “extracellular cerebral lactate levels” value ([1]; 18 to 39 years, infusion ≤12 hours, a number of patients <2.5 millimol/L (FIG. 8A)) was “lower brain lactate levels than the placebo group”. The “extracellular cerebral lactate levels” value ([1]; 40 to 60 years, all times to infusion, all patients, higher than placebo (FIG. 7C)) was no less than 2.5 millimol/L, the “extracellular cerebral lactate levels” value ([1]; 40 to 60 years, infusion ≤12 hours, all patients, higher than placebo (FIG. 9A)) was no less than 2.5 millimol/L and the “extracellular brain lactate levels” value ([1]; within 120 hours after administration, stayed below threshold or only slightly elevated) was less than 2.5 millimol/L. The “time ICP remained lowered after the treatment” value [2] was “at least 18 h”.
